# According to paper PMC13267291, “In vivo functional profiling and structural characterization of the human GLP1R A316T variant” (Science Advances, 2026):
# Key:
# [1] = system: SNAP/FLAG-hGLP1R^A316T versus ^WT; assay: GLP-1R ubiquitination assay; assay type: cell-based, rat; conditions: 100 nM, 10 min; n = 5; Fig. 8K
# Description: INS-1 832/3 Glp1r-/- SNAP/FLAG-hGLP1RWT or A316T cells plated onto 6- cm dishes were stimulated ± 100 nM exendin-4 for 10 min, washed with PBS and osmotically lysed in lysis buffer (50 mM tris-HCl, pH 7.4, 150 mM NaCl, 1% Triton X-100, 1 mM EDTA) with 1% protease inhibitor (Roche) and 1% phosphatase inhibitor cocktail (Sigma-Aldrich) at 4°C. Cell lysates were centrifuged at 12,000 g and 4°C for 10 min prior to the addition of 40 μL anti- FLAG M2 beads (A2220, Sigma-Aldrich) and overnight rotating incubation at 4°C to increase FLAG-tag binding efficiency. Samples were then centrifuged at 5,000 g for 30 s, bead pellets washed 3x in 500 μL wash buffer (50 mM Tris-HCl, 150 mM NaCl, pH 7.4), and proteins eluted with 2x urea buffer at 37°C for 10 min before Western blot analysis with anti-ubiquitin antibody (1:1,000; sc-8017, Santa Cruz Biotechnology) and sheep anti-mouse HRP secondary (1:5,000; ab6808, Abcam) followed by stripping and reblotting with anti-SNAP antibody as above to assess immunoprecipitated receptor per sample. GLP-1R ubiquitination was calculated from ubiquitin over SNAP band intensity levels under the different conditions tested using Fiji.
# LC- MS/MS G LP-1R interactome analysis
# INS-1 832/3 Glp1r-/- SNAP/FLAG-hGLP1RWT or A316T cells were plated onto 6-cm dishes and stimulated with vehicle or 100 nM GLP-1RA for 5 min as previously described (63). […]
# [2] = system: SNAP/FLAG-hGLP1R^A316T versus ^WT; assay: GLP-1R conformational ECD opening TR-FRET assay; assay type: cell-based, human; conditions: serial doses, 30 min; n = 5; Fig. 8E
# Description: Nb37 bystander NanoBiT assays
# INS-1 832/3 Glp1r-/- cells were seeded in 6-well plates and co-transfected with the following plasmids:
# 200 ng pSNAP/FLAG-hGLP1RWT or A316T, 500 ng Gαs (human, short isoform), 500 ng Gβ1 (human), 500 ng Gγ2 (human), 100 ng RIC8B (human, isoform 2), and either 100 ng LgBiT-CAAX (KRAS CAAX motif N-terminally fused with LgBiT) or 500 ng Endofin-LgBiT (Endofin FYVE domain C-terminally fused with LgBiT), plus 100 ng (plasma membrane assay) or 500 ng (endosomal assay) SmBiT-Nb37 [Nb37 cDNA synthesised by GenScript C- terminally fused to SmBiT with a 15 amino acid flexible linker (123) ] and adjusted for total DNA with pcDNA3.1 for the LgBiT-CAAX transfection. 24 hours after transfection, cells were exposed to NanoGlo Live Cell Reagent (Promega) with furimazine (1:20 dilution) and bioluminescence read in a Flexstation 3 plate reader for 8 min before and 30 min after stimulation by […]
# AUCs were calculated for each agonist concentration and fitted to log(agonist) versus response four-parameter curves using GraphPad Prism 10.1.2, with logEC50 (potency) and Emax (efficacy) calculated for each replicate dose response curve. Baseline endosomal over plasma membrane bioluminescence ratios were also calculated.
# GLP- 1R conformational ECD opening time resolved-fluorescence resonance energy transfer (TR- […]
# signal serially monitored for 30 min. […]
Substance,Effect of agonist stimulation on WT GLP-1R ubiquitination level [1],Effect of agonist stimulation on ubiquitination of the A316T receptor [1],"TR-FRET (ECD opening) in response to agonist, A316T versus WT [2]"
exendin-4,did not affect,significantly increased,–
GLP-1(7-36)NH2,–,–,significantly increased
